Data from US9487513B2, “Substituted pyrazolo[1,5-A]pyridines, their preparation and use as medicaments” (LABORATORIOS DEL DR. ESTEVE S.A., priority 2012, dated 2016).
Counter-ions that a name gives are not always drawn.

Target: T1, σ1-receptor (Cavia porcellus, UniProt Q60492)
T1 construct: Guinea pig brains were homogenized in 10 vols; (w/v) of Tris-HCl 50 mM 0.32 M sucrose; from tissue; host or cells: guinea pig brain membranes
Experiment: σ1-receptor binding assay, [3H]-(+)-pentazocine, guinea pig brain membranes
Conditions: radioligand [3H]-(+)-pentazocine at 5.0 nM; guinea pig brain membrane; 150 min at 37° C.; nonspecific binding with 1 μM haloperidol
Description: Brain membrane preparation and binding assays for the σ1-receptor were performed as described (DeHaven-Hudkins, D. L., L. C. Fleissner, and F. Y. Ford-Rice, 1992, Characterization of the binding of [^3H](+)pentazocine to σ recognition sites in guinea pig brain, Eur. J. Pharmacol. 227, 371-378) with some modifications. Guinea pig brains were homogenized in 10 vols. (w/v) of Tris-HCl 50 mM 0.32 M sucrose, pH 7.4, with a Kinematica Polytron PT 3000 at 15000 r.p.m. for 30 s. The homogenate was centrifuged at 1000 g for 10 min at 4° C. and the supernatants collected and centrifuged again at 48000 g for 15 min at 4° C. The pellet was resuspended in 10 volumes of Tris-HCl buffer (50 mM, pH 7.4), incubated at 37° C. for 30 min, and centrifuged at 48000 g for 20 min at 4° C. Following this, the pellet was re-suspended in fresh Tris-HCl buffer (50 mM, pH 7.4) and stored on ice until use.
The radioligand used was [^3H]-(+)-pentazocine at 5.0 nM and the final volume was 200 μl. The incubation was initiated with the addition of 100 μl of membrane at a final tissue concentration of approximately 5 mg tissue net weight/mL and the incubation time was 150 m. at 37° C. After incubation, the membranes were collected onto pretreated glass fiber filterplate (MultiScreen-FC, Millipore), with polyethylenimine 0.1%. The filters were washed two times with 200 μl of washing buffer (50 mM Tris Cl, pH=7.4) and then 25 μl of Ecoscint H liquid scintillation cocktail were added. Microplates were allowed to set for several hours and then quantified by liquid scintillation spectrophotometry (1450 Microbeta, Wallac). Nonspecific binding was determined with 1 μM haloperidol.

T1 sequence (Q60492 whole entry): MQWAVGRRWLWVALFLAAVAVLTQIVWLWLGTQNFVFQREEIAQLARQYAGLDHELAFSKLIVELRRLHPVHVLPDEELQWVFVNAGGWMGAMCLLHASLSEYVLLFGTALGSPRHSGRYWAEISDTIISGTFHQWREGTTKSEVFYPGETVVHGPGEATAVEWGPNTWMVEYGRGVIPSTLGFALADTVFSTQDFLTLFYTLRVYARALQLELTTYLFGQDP

Ki	Structure (SMILES)
195 nM	CC(C)N1CCN(CCOc2cc3n(n2)CCCC3)CC1 [Example 91, 2-(2-(4-isopropylpiperazin-1-yl)ethoxy)-4,5,6,7-tetrahydropyrazolo[1,5-a]pyridine maleate]
118 nM	c1ccn2nc(OCCCCN3CCOCC3)cc2c1 [Example 17, 4-(4-(pyrazolo[1,5-a]pyridin-2-yloxy)butyl)morpholine oxalate]
10.6 nM	CCCN(CCCCOc1cc2ccccn2n1)CC1CC1 [Example 35, N-(cyclopropylmethyl)-N-propyl-4-(pyrazolo[1,5-a]pyridin-2-yloxy)butan-1-amine maleate]
14.5 nM	CN(CCCCOc1cc2ccccn2n1)Cc1ccncc1 [Example 32, N-methyl-4-(pyrazolo[1,5-a]pyridin-2-yloxy)-N-(pyridin-4-ylmethyl)butan-1-amine dihydrochloride]
31.7 nM	c1c(OCCNC23CC4CC(CC(C4)C2)C3)nn2c1CCCC2 [Example 75, N-adamantyl-2-(4,5,6,7-tetrahydropyrazolo[1,5-a]pyridin-2-yloxy)ethanamine maleate]
12.8 nM	c1c(OCCCCN2CC[C@H]3CCCC[C@@H]3C2)nn2c1CCCC2 [Example 81, (4aR,8aS)-2-(4-(4,5,6,7-tetrahydropyrazolo[1,5-a]pyridin-2-yloxy)butyl)decahydroisoquinoline maleate]
21 nM	CN(CCCCOc1cc2ccccn2n1)CCc1ccccc1 [Example 31, N-methyl-N-phenethyl-4-(pyrazolo[1,5-a]pyridin-2-yloxy)butan-1-amine hydrochloride]
42.5 nM	c1c(OCCCCNC2CCCCC2)nn2c1CCCC2 [Example 85, N-(4-(4,5,6,7-tetrahydropyrazolo[1,5-a]pyridin-2-yloxy)butyl)cyclohexanamine maleate]
8.1 nM	CN(CCCCOc1cc2n(n1)CCCC2)Cc1ccccc1 [Example 82, N-benzyl-N-methyl-4-(4,5,6,7-tetrahydropyrazolo[1,5-a]pyridin-2-yloxy)butan-1-amine maleate]
97.2 nM	c1c(OCCCN2CCCCC2)nn2c1CCCC2 [Example 99, 2-(3-(piperidin-1-yl)propoxy)-4,5,6,7-tetrahydropyrazolo[1,5-a]pyridine maleate]
37.6 nM	c1ccn2nc(COCCN3CCCCCC3)cc2c1 [Example 2, 2-((2-(azepan-1-yl)ethoxy)methyl)pyrazolo[1,5-a]pyridine maleate]
37.1 nM	c1c(OCCCN2CCN(C3CCCCC3)CC2)nn2c1CCCC2 [Example 100, 2-(3-(4-cyclohexylpiperazin-1-yl)propoxy)-4,5,6,7-tetrahydropyrazolo[1,5-a]pyridine maleate]
25.9 nM	c1c(OCCN2CCCCCC2)nn2c1CCCC2 [Example 53, 2-(2-(azepan-1-yl)ethoxy)-4,5,6,7-tetrahydropyrazolo[1,5-a]pyridine maleate]
181 nM	c1c(OCCCCN2CCOCC2)nn2c1CCCC2 [Example 56, 4-(4-(4,5,6,7-tetrahydropyrazolo[1,5-a]pyridin-2-yloxy)butyl)morpholine oxalate]
74.9 nM	CCN(CC)CCCCOc1cc2ccccn2n1 [Example 19, N,N-diethyl-4-(pyrazolo[1,5-a]pyridin-2-yloxy)butan-1-amine oxalate]
6.35 nM	CC(C)(C)C1CCN(CCOc2cc3ccccn3n2)CC1 [Example 39, 2-(2-(4-tert-butylpiperidin-1-yl)ethoxy)pyrazolo[1,5-a]pyridine maleate]
65.7 nM	CN(CCCCOc1cc2n(n1)CCCC2)C1CCN(Cc2ccccc2)CC1 [Example 67, 1-benzyl-N-methyl-N-(4-(4,5,6,7-tetrahydropyrazolo[1,5-a]pyridin-2-yloxy)butyl)piperidin-4-amine dimaleate]
7.3 nM	c1c(OCCCCN2CCC3CCCCC3C2)nn2c1CCCC2 (stereo not drawn) [Example 68, 2-(4-(4,5,6,7-tetrahydropyrazolo[1,5-a]pyridin-2-yloxy)butyl)decahydroisoquinoline maleate]
15.4 nM	CN(CCOc1cc2n(n1)CCCC2)Cc1ccccc1 [Example 64, N-benzyl-N-methyl-2-(4,5,6,7-tetrahydropyrazolo[1,5-a]pyridin-2-yloxy)ethanamine oxalate]
3.6 nM	CN(CCCCOc1cc2ccccn2n1)Cc1ccccc1 [Example 22, N-benzyl-N-methyl-4-(pyrazolo[1,5-a]pyridin-2-yloxy)butan-1-amine oxalate]
35 nM	CN(CCOc1cc2n(n1)CCCC2)C1CCN(Cc2ccccc2)CC1 [Example 72, 1-benzyl-N-methyl-N-(2-(4,5,6,7-tetrahydropyrazolo[1,5-a]pyridin-2-yloxy)ethyl)piperidin-4-amine maleate]

Structure (SMILES)	Ki
Clc1c(OCCCCN2CCN(C3CCCCC3)CC2)nn2c1CCCC2 [Example 108, 3-chloro-2-(4-(4-cyclohexylpiperazin-1-yl)butoxy)-4,5,6,7-tetrahydropyrazolo[1,5-a]pyridine]	11.4 nM
c1ccc(N2CCN(CCCCOc3cc4ccccn4n3)CC2)cc1 [Example 25, 2-(4-(4-phenylpiperazin-1-yl)butoxy)pyrazolo[1,5-a]pyridine oxalate]	19.6 nM
c1c(OCCCCN2CCN(C3CCCCC3)CC2)nn2c1CCCC2 [Example 69, 2-(4-(4-cyclohexylpiperazin-1-yl)butoxy)-4,5,6,7-tetrahydropyrazolo[1,5-a]pyridine maleate]	41.6 nM
CC(C)N1CCN(CCCCOc2cc3n(n2)CCCC3)CC1 [Example 92, 2-(4-(4-isopropylpiperazin-1-yl)butoxy)-4,5,6,7-tetrahydropyrazolo[1,5-a]pyridine maleate]	182 nM
CC(C)(C)C1CCN(CCCCOc2nn3c(c2Cl)CCCC3)CC1 [Example 105, 2-(4-(4-tert-butylpiperidin-1-yl)butoxy)-3-chloro-4,5,6,7-tetrahydropyrazolo[1,5-a]pyridine maleate]	13.3 nM
c1ccc(C2CCN(CCCCOc3cc4ccccn4n3)CC2)cc1 [Example 21, 2-(4-(4-phenylpiperidin-1-yl)butoxy)pyrazolo[1,5-a]pyridine oxalate]	3.8 nM
c1ccc(OC2CCN(CCCCOc3cc4ccccn4n3)CC2)cc1 [Example 23, 2,(4-(4-phenoxypiperidin-1-yl)butoxy)pyrazolo[1,5-a]pyridine oxalate]	30.1 nM
c1c(OCCCCN2CCCCCC2)nn2c1CCCC2 [Example 78, 2-(4-(azepan-1-yl)butoxy)-4,5,6,7-tetrahydropyrazolo[1,5-a]pyridine maleate]	26.1 nM
c1ccn2nc(COCCCCN3CCN(C4CCCCC4)CC3)cc2c1 [Example 10, 2-((4-(4-cyclohexylpiperazin-1-yl)butoxy)methyl)pyrazolo[1,5-a]pyridine maleate]	75.4 nM
c1ccn2nc(OCCN3CCC4CCCCC4C3)cc2c1 (stereo not drawn) [Example 42, 2-(2-(pyrazolo[1,5-a]pyridin-2-yloxy)ethyl)decahydroisoquinoline maleate]	3.6 nM
c1ccn2nc(OCCCCN3CCC4CCCCC4C3)cc2c1 (stereo not drawn) [Example 34, 2-(4-(pyrazolo[1,5-a]pyridin-2-yloxy)butyl)decahydroisoquinoline fumarate]	5.7 nM
c1ccc2c(c1)COC21CCN(CCCCOc2cc3ccccn3n2)CC1 [Example 27, 1′-(4-(pyrazolo[1,5-a]pyridin-2-yloxy)butyl)-3H-spiro[isobenzofuran-1,4′-piperidine] oxalate]	9.1 nM
c1ccc2cc(C3CCN(CCCCOc4cc5ccccn5n4)CC3)ccc2c1 [Example 26, 2-(4-(4-(naphthalen-2-yl)piperidin-1-yl)butoxy)pyrazolo[1,5-a]pyridine]	11 nM
CN1CCCN(CCCCOc2cc3n(n2)CCCC3)CC1 [Example 96, 2-(4-(4-methyl-1,4-diazepan-1-yl)butoxy)-4,5,6,7-tetrahydropyrazolo[1,5-a]pyridine maleate]	180 nM
c1ccc2c(c1)COC21CCN(CCCCOCc2cc3ccccn3n2)CC1 [Example 6, 1′-(4-(pyrazolo[l,5-a]pyridin-2-ylmethylpyrazolo[1,5-a]pyridin-2-ylmethoxy)butyl)-3H-spiro[isobenzofuran-1,4′-piperidine] maleate]	23.3 nM
CC(C)(C)C1CCN(CCCCOCc2cc3ccccn3n2)CC1 [Example 1, 2-((4-(4-tert-butylpiperidin-1-yl)butoxy)methyl)pyrazolo[1,5-a]pyridine maleate]	16.3 nM
CN1CCN(CCCCOc2cc3n(n2)CCCC3)CC1 [Example 93, 2-(4-(4-methylpiperazin-1-yl)butoxy)-4,5,6,7-tetrahydropyrazolo[1,5-a]pyridine maleate]	167 nM
c1ccc2c(c1)COC21CCN(CCOc2cc3ccccn3n2)CC1 [Example 48, 1′-(2-(pyrazolo[1,5-a]pyridin-2-yloxy)ethyl)-3H-spiro[isobenzofuran-1,4′-piperidine] dimaleate]	15.8 nM
